The target in one data set is T1, human κ-opioid receptor (Homo sapiens, UniProt P41145).
T1 construct: host or cells: OPRK1 cells (DiscoveRx)
The experiment in a line: Agonist activity on human κ-opioid receptors (inhibition of forskolin-stimulated cAMP release, TR-FRET). It is filed as cell-based. The following applies: OPRK1 cells (DiscoveRx). An excerpt: Test 1: Agonist Activity on Human κ-Opioid Receptors
Forskolin can stimulate the release of cAMP from a human κ-opioid receptor-overexpressing cell line, OPRK1 cells (DiscoveRx), and κ-opioid receptor agonists can inhibit the cAMP release stimulated by forskolin. By detecting the inhibitory effect of the test compound on the cAMP release stimulated by forskolin, the agonistic activity of the compound on the human κ-opioid receptor can be determined. First, a certain concentration of forskolin and different concentrations of the test compound were incubated with human κ-opioid receptor overexpressing cell lines. A cAMP immunoassay (LANCE®, PerkinElmer) based on time-resolved fluorescence resonance energy transfer (TR-FRET) was used to determine cAMP levels in the stimulated OPRK1 cells. The specific method is as follows:
OPRK1 cells (DiscoveRx) that highly express human κ-opioid receptors were cultured in McCoy's 5A (Gibco 16600-082) medium containing 10% FBS (Gibco 10099-141). On the day of the experiment, the cells in the exponential growth phase were washed and separated with PBS/5 mM EDTA, collected by centrifugation, resuspended with Stimulation Buffer and counted. The concentration of cells was adjusted to 3*10^5 cells/ml. DMSO was used to dissolve Forskolin and the test compound respectively, so that the mother liquor concentration each was 10 mM, and then diluted Forskolin to […] with Stimulation Buffer, and different concentrations of the test compound (the concentrations were 80, 16, 3.2, 0.64, 0.128, 0.0256, 0.00512, 0.001024, 0 μM) was added, 5 μl per well was added to a 384-well plate. 5 μl of cell suspension was added to each well and incubated at room temperature for 30 min. Subsequently, 5 μl of 4×Eu-cAMP tracer working solution (50-fold dilution of Eu-cAMP stock solution with cAMP Detection Buffer) and 5 μl of 4×Ulight-anti-cAMP working solution (150-fold dilution of ULight-anti-cAMP stock solution with cAMP Detection Buffer) were added to each well, and incubated at room temperature for 1 hour. 384-well plates were assayed for cAMP levels using a microplate reader (Perkin Elmer, Envision) TR-FRET method. The obtained data were processed and fitted to EC50 using the origin 7.5 software. The human κ-opioid receptor agonistic activity of the compound of the present invention was measured through the above experiments, and the measured EC50 values are shown in Table 1.
Stimulation Buffer preparation method: 14 mL 1*HBSS (invitrogen, cat. #14025-092), 75 μL 1 M HEPES (Invitrogen, cat. #15630-080), 30 μL 250 mM IBMX was dissolved in DMSO (Sigma, cat. #17018) and mixed with 200 μL 7.5% BSA Stabilizer. pH of the solution was adjusted to 7.4 with 0.1 N NaOH and make up to 15 mL with 1*HBSS.

A further data set in a line: Rat PK test. It is filed as in vivo. The note with it: male SD rats, iv, 1 mg/kg (calculated in free form).
Another data set in a line: Mouse PK test. Type of data set: in vivo. The following applies: plasma, male ICR mice, iv, 1 mg/kg (calculated in free form).

T1 sequence (P41145 whole entry): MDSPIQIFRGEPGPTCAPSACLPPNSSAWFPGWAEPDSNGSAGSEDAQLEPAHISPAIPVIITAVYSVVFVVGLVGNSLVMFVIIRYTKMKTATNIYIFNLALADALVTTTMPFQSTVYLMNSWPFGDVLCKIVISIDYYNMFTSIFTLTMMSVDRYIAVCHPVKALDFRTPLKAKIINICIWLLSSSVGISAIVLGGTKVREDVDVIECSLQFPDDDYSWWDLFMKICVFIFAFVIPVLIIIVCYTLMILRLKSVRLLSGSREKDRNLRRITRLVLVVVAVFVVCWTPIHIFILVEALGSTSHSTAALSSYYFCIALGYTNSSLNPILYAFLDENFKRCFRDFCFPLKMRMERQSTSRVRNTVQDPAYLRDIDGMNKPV

The compound `CC(C)C[C@@H](NC(=O)[C@@H](Cc1ccccc1)NC(=O)[C@H](N)Cc1ccccc1)C(=O)N[C@H](CCCCN)C(=O)N1CCC2(CC1)CN(C(=O)N1CCCC1)C2` [Compound 13, (2R)-2-[[(2R)-2-[[(2R)-2-amino-3-phenyl-propanoyl]amino]-3-phenyl-propanoyl]amino]-N-[(1R)-5-amino-1-[2-(pyrrolidin-1-carbonyl)-2,7-diazaspiro[3.5]nonane-7-carbonyl]pentyl]-4-methyl-pentanamide; di-trifluoroacetic acid] showed an EC50 on human κ-opioid receptor of 6.82 pM.
`CC(C)C[C@@H](NC(=O)[C@@H](Cc1ccccc1)NC(=O)[C@H](N)Cc1ccccc1)C(=O)N[C@H](CCCCN)C(=O)N1CC2(CCN(C3COC3)CC2)C1` [Compound 33, (2R)—N-[(1R)-5-amino-1-[7-(oxetan-3-yl)-2,7-diazaspiro[3.5]nonane-2-carbonyl]pentyl]-2-[[(2R)-2-[[(2R)-2-amino-3-phenyl-propanoyl]amino]-3-phenyl-propanoyl]amino]-4-methyl-pentanamide; tri-trifluoroacetic acid]: the EC50 on human κ-opioid receptor worked out at 50 pM. Against the preceding compound, the EC50 is about 7.3-fold higher.
Same read-out and setting: as for `CC(C)C[C@@H](NC(=O)[C@@H](Cc1ccccc1)NC(=O)[C@H](N)Cc1ccccc1)C(=O)N[C@H](CCCCN)C(=O)N1CC2(CCN(C(=O)[C@@H](C)N)CC2)C1` [Compound 18, (2R)—N-[(1R)-5-amino-1-[7-[(2R)-2-aminopropanoyl]-2,7-diazaspiro[3.5]nonane-2-carbonyl]pentyl]-2-[[(2R)-2-[[(2R)-2-amino-3-phenyl-propanoyl]amino]-3-phenyl-propanoyl]amino]-4-methyl-pentanamide; tri-trifluoroacetic acid], the figure is 40 pM; as for `CC(C)C[C@@H](NC(=O)[C@@H](Cc1ccccc1)NC(=O)[C@H](N)Cc1ccccc1)C(=O)N[C@H](CCCCN)C(=O)N1CCC2(CC1)CN(C(=O)N1CC(S(C)(=O)=O)C1)C2` [Compound 14, (2R)—N-[(1R)-5-amino-1-[2-(3-methylsulfonylazetidine-1-carbonyl)-2,7-diazaspiro[3.5]nonane-7-carbonyl]pentyl]-2-[[(2R)-2-[[(2R)-2-amino-3-phenyl-propanoyl]amino]-3-phenyl-propanoyl]amino]-4-methyl-pentanamide; di-trifluoroacetic acid], 15.5 pM; as for `CC(C)C[C@@H](NC(=O)[C@@H](Cc1ccccc1)NC(=O)[C@H](N)Cc1ccccc1)C(=O)N[C@H](CCCCN)C(=O)N1CC2(CCN(C(=O)[C@@H](C)N)CC2(F)F)C1` [Compound 19, (2R)—N-[(1R)-5-amino-1-[7-[(2R)-2-aminopropanoyl]-5,5-difluoro-2,7-diazaspiro[3.5]nonane-2-carbonyl]pentyl]-2-[[(2R)-2-[[(2R)-2-amino-3-phenyl-propanoyl]amino]-3-phenyl-propanoyl]amino]-4-methyl-pentanamide; tri-trifluoroacetic acid], 44 pM.
Still for that read-out and setting: the figure for `CC(C)C[C@@H](NC(=O)[C@@H](Cc1ccccc1)NC(=O)[C@H](N)Cc1ccccc1)C(=O)N[C@H](CCCCN)C(=O)N1CC2(CCN(S(C)(=O)=O)CC2)C1` [Compound 12, (2R)—N-[(1R)-5-amino-1-(7-methylsulfonyl-2,7-diazaspiro[3.5]nonane-2-carbonyl)pentyl]-2-[[(2R)-2-[[(2R)-2-amino-3-phenyl-propanoyl]amino]-3-phenyl-propanoyl]amino]-4-methyl-pentanamide; di-trifluoroacetic acid] is 67 pM.
The same measure, in the same setting: the figure for `CC(=O)N1CCC2(CCN(C(=O)[C@@H](CCCCN)NC(=O)[C@@H](CC(C)C)NC(=O)[C@@H](Cc3ccccc3)NC(=O)[C@H](N)Cc3ccccc3)C2)C1` (stereo partly drawn) [Compound 31, (2R)—N-[(1R)-1-(7-acetyl-2,7-diazaspiro[4.4]nonane-2-carbonyl)-5-amino-pentyl]-2-[[(2R)-2-[[(2R)-2-amino-3-phenyl-propanoyl]amino]-3-phenyl-propanoyl]amino]-4-methyl-pentanamide; di-trifluoroacetic acid] is 13.6 pM; for `CNC(=O)N1CCC2(CCN(C(=O)[C@@H](CCCCN)NC(=O)[C@@H](CC(C)C)NC(=O)[C@@H](Cc3ccccc3)NC(=O)[C@H](N)Cc3ccccc3)C2)C1` (stereo partly drawn) [Compound 22, 7-[(2R)-6-amino-2-[[(2R)-2-[[(2R)-2-[[(2R)-2-amino-3-phenyl-propanoyl]amino]-3-phenyl-propanoyl]amino]-4-methyl-pentanoyl]amino]hexanoyl]-N-methyl-2,7-diazaspiro[4.4]nonane-2-carboxamide; di-trifluoroacetic acid] it is 11.2 pM; for `CC(=O)N1CCC2(C1)CN(C(=O)[C@@H](CCCCN)NC(=O)[C@@H](CC(C)C)NC(=O)[C@@H](Cc1ccccc1)NC(=O)[C@H](N)Cc1ccccc1)C2` [Compound 30, (2R)—N-[(1R)-1-(7-acetyl-2,7-diazaspiro[3.4]octane-2-carbonyl)-5-amino-pentyl]-2-[[(2R)-2-[[(2R)-2-amino-3-phenyl-propanoyl]amino]-3-phenyl-propanoyl]amino]-4-methyl-pentanamide; di-trifluoroacetic acid] it is 71 pM.
As for `CC(C)C[C@@H](NC(=O)[C@@H](Cc1ccccc1)NC(=O)[C@H](N)Cc1ccccc1)C(=O)N[C@H](CCCCN)C(=O)N1CCC2(CC1)CC(N1CCCCC1)C2` [Compound 23, (2R)-2-[[(2R)-2-[[(2R)-2-amino-3-phenyl-propanoyl]amino]-3-phenyl-propanoyl]amino]-N-[(1R)-5-amino-1-[2-(1-piperidinyl)-7-azaspiro[3.5]nonane-7-carbonyl]pentyl]-4-methyl-pentanamide; tri-trifluoroacetic acid], a half-maximal effect at human κ-opioid receptor (EC50) was put at 23 pM. This EC50 is about 3.1-fold lower than that of the compound before.
On to `CC(C)C[C@@H](NC(=O)[C@@H](Cc1ccccc1)NC(=O)[C@H](N)Cc1ccccc1)C(=O)N[C@H](CCCCN)C(=O)N1CCC(N)(C(=O)O)CC1` [CR-845], for which the Cl in the data set “Rat PK test” is recorded as 8.29 ml/kgmin. Besides, in the data set “Rat PK test” (rat, plasma), the area under the curve AUC(0-t) is 1960 ng·h/mL and the half-life is 3.9 h. Moreover, the Vd in the data set “Rat PK test” (rat, plasma, read-out: Vdss) was 1.56 L/kg. Further, in “Mouse PK test”, the AUC(0-t) is 1120 ng·h/mL and the half-life is 0.388 h.
`CC(=O)N1CCC2(CC1)CN(C(=O)[C@@H](CCCCN)NC(=O)[C@@H](CC(C)C)NC(=O)[C@@H](Cc1ccccc1)NC(=O)[C@H](N)Cc1ccccc1)C2` [Compound 20, (2R)—N-[(1R)-1-(7-acetyl-2,7-diazaspiro[3.5]nonane-2-carbonyl)-5-amino-pentyl]-2-[[(2R)-2-[[(2R)-2-amino-3-phenyl-propanoyl]amino]-3-phenyl-propanoyl]amino]-4-methyl-pentanamide; di-trifluoroacetic acid] had an EC50 on human κ-opioid receptor of 86 pM. In other words, the picomolar range.
Take `CC(C)C[C@@H](NC(=O)[C@@H](Cc1ccccc1)NC(=O)[C@H](N)Cc1ccccc1)C(=O)N[C@H](CCCCN)C(=O)N1CCC2(CC1)CN(C(=O)[C@@H](C)N)C2` [Compound 17, (2R)—N-[(1R)-5-amino-1-[2-[(2R)-2-aminopropanoyl]-2,7-diazaspiro[3.5]nonane-7-carbonyl]pentyl]-2-[[(2R)-2-[[(2R)-2-amino-3-phenyl-propanoyl]amino]-3-phenyl-propanoyl]amino]-4-methyl-pentanamide; tri-trifluoroacetic acid]: the concentration for a half-maximal effect (EC50) at human κ-opioid receptor is 9.19 pM. Moreover, in the data set “Mouse PK test”, the AUC(0-t) was 2240 ng·h/mL and the half-life is 3.88 h.

(Values after patent US11014964B2, “Peptide amide compound and preparation method and medical use thereof” (Sichuan Haisco Pharmaceutical Co., Ltd., priority 2017, dated 2021).)
